Measured values published in PMC7735735, “Store-Operated Calcium Entry as a Therapeutic Target in Acute Pancreatitis: Discovery and Development of Drug-Like SOCE Inhibitors” (Journal of Medicinal Chemistry, 2020).
Read-outs that look alike come from different tables or passages of the source.

Experiments:
SOCE [1] = assay: SOCE inhibition in HEK cells by fluorescence microscopy (calcium imaging); format: cell-based, human; conditions: for inhibition at 3 µM / inhibition at 10 µM: Homo sapiens; for inhibition at 10 µM: negative value = increased Ca2+ entry vs control; for AUC, peak amplitude, and slope of the Ca2+-rise: selected compounds, Figure S1
Description: With these two compounds in hand, two click reactions were performed and compounds 9 and 18 (Table 1), displaying the same substructures as the reference compound Synta66, were obtained with a yield of 31 and 60%, respectively. 9 and 18 were tested for activity on SOCE in HEK cells, a human embryonic kidney (HEK) cell line, by fluorescence microscopy, as described elsewhere.[16] After 600 s, Ca^2+ was added and intracellular levels were measured.
Screening, dose–response experiments, and calcium imaging experiments were performed in HEK cells (ATCC, Rock, ville, MD, USA), as already reported elsewhere.[16]

HEK cells [2] = assay: HEK cell viability after 72 h at 50 μM with or without uridine (involvement of DHODH); conditions: 50 μM, 72 h; for reversal of cytotoxicity by uridine: uridine 100 μM
chemically induced AP = test system: chemically induced AP; design: method as in PMID 31050811; conditions: three different murine models; cited from earlier work
HEK cells [3] = test system: HEK cells
SOCE [4] = test system: SOCE; design: method as in PMID 29038464; conditions: HEK cells; cited from earlier work
ICRAC = test system: ICRAC; design: method as in PMID 19648266; conditions: cited from earlier work
[5] = HEK293, supplementary CSV, HEK cells, read-out: % SOCE Inhibition (3 µM)

Q: With COc1cccc(OC)c1-c1ccc(-c2cn(-c3cccc(C(=O)O)c3)nn2)cc1 [Compound 47, 3-(4-(2′,6′-Dimethoxy-[1,1′-biphenyl]-4-yl)-1H-1,2,3-triazol-1-yl)benzoic Acid] as the molecule, how does the “effect on SOCE, in words” value (SOCE [1]; HEK cells) read?
A: positive modulator of SOCE

Q: And the “AUC of calcium entry and peak amplitude vs control” value (SOCE [1]; HEK cells, 3 μM)?
A: significantly increased the AUC of calcium entry and the peak amplitude

Q: And the “slope of the Ca2+-rise vs control” value (SOCE [1]; HEK cells, 3 μM)?
A: absence of effect on slope

Q: And the inhibition at 3 µM (SOCE [1]; HEK293, HEK cells, 3 μM, negative value = increased SOCE, read-out: % SOCE inhibition (3 μM))?
A: -22.8 ± 0.9%

Q: With O=C(O)c1cccc(NC(=O)c2ccc(-c3ccc4c(c3)OCCO4)cc2)c1 [Compound 69, 3-(4-(2,3-Dihydrobenzo[b][1,4]dioxin-6-yl)benzamido)benzoic Acid] as the molecule, how does the “effect on SOCE, in words” value (SOCE [1]; HEK cells) read?
A: significantly reduced activity compared to the parent compound

Q: Which “AUC and peak amplitude of the Ca2+-rise vs control” value (SOCE [1]; HEK cells, 10 μM) does the source give for COc1ccc(OC)c(-c2ccc(-c3cn(-c4cccc(C(=O)O)c4)nn3)cc2)c1 [Compound 23, 3-(4-(2′,5′-Dimethoxy-[1,1′-biphenyl]-4-yl)-1H-1,2,3-triazol-1-yl)benzoic Acid] here?
A: significantly reduced AUC and peak amplitude

Q: And the inhibition at 10 µM (SOCE [1]; HEK293, HEK cells, 10 μM)?
A: > 70%

Q: With COc1ccc(OC)c(-c2ccc(-c3cn(-c4cccnc4)nn3)cc2)c1 [Compound 20, 3-(4-(2′,5′-Dimethoxy-[1,1′-biphenyl]-4-yl)-1H-1,2,3-triazol-1-yl)pyridine] as the molecule, how does the “effect on SOCE, in words” value (SOCE [1]; HEK cells) read?
A: not able to reliably inhibit SOCE

Q: Which results are given for COc1ccc(OC)c(-c2ccc(-n3cc(-c4ccncc4)nn3)cc2)c1 [Compound 10, 4-(1-(2′,5′-Dimethoxy-[1,1′-biphenyl]-4-yl)-1H-1,2,3-triazol-4-yl)pyridine]?
A: effect on SOCE, in words (SOCE [1]; HEK cells): not able to reliably inhibit SOCE; inhibition at 10 µM (SOCE [1]; HEK293, HEK cells, 10 μM): -12.8 ± 14.4%; inhibition at 3 µM (SOCE [1]; [5]): -12.8 ± 14.4%

Q: With COc1ccc(OC)c(-c2ccc(-n3cc(-c4cccc(C(=O)O)c4)nn3)cc2)c1 [Compound 14, 3-(1-(2′,5′-Dimethoxy-[1,1′-biphenyl]-4-yl)-1H-1,2,3-triazol-4-yl)benzoic Acid] as the molecule, how does the inhibition at 10 µM (SOCE [1]; HEK293, HEK cells, 10 μM) read?
A: > 70%

Q: With COc1ccc(F)c(-c2ccc(-c3cn(-c4cccc(C(=O)O)c4)nn3)cc2)c1 [Compound 56, 3-(4-(2′-Fluoro-5′-methoxy-[1,1′-biphenyl]-4-yl)-1H-1,2,3-triazol-1-yl)benzoic Acid] as the molecule, how does the “AUC, peak amplitude, and slope of the Ca2+-rise” value (from here on “AUC, peak amplitude, and slope”) (SOCE [1]; HEK cells) read?
A: induced a drop in the three parameters

Q: Which “effect on SOCE, in words” value (SOCE [1]; HEK cells) does the source give for O=C(O)c1cccc(C(=O)Nc2ccc(-c3ccc4c(c3)OCCO4)cc2)c1 [Compound 64, 3-((4-(2,3-Dihydrobenzo[b][1,4]dioxin-6-yl)phenyl)carbamoyl)benzoic Acid] here?
A: significantly reduced activity compared to the parent compound

Q: What about the “cell viability / cytotoxicity at 50 μM, 72 h” value (HEK cells [2]) of the same molecule?
A: significant cytotoxicity

Q: And the “reversal of cytotoxicity by uridine” value (HEK cells [2])?
A: fully reverted by uridine

Q: For COc1ccc(OC)c(-c2ccc(-n3cc(-c4ccncc4F)nn3)cc2)c1 [Compound 9, 4-(1-(2′,5′-Dimethoxy-[1,1′-biphenyl]-4-yl)-1H-1,2,3-triazol-4-yl)-3-fluoropyridine], which “effect on SOCE, in words” value (SOCE [1]; HEK cells) is on record?
A: not able to reliably inhibit SOCE

Q: With COc1ccc(OC)c(-c2ccc(-n3cc(-c4cccnc4)nn3)cc2)c1 [Compound 11, 3-(1-(2′,5′-Dimethoxy-[1,1′-biphenyl]-4-yl)-1H-1,2,3-triazol-4-yl)pyridine] as the molecule, how does the “effect on SOCE, in words” value (SOCE [1]; HEK cells) read?
A: not able to reliably inhibit SOCE

Q: And the inhibition at 10 µM (SOCE [1]; HEK293, HEK cells, 10 μM)?
A: -14 ± 31.9%

Q: What about the inhibition at 3 µM (SOCE [1]; [5]) of the same molecule?
A: -14 ± 31.9%

Q: For Cc1cccc(F)c1C(=O)Nc1cnc(-c2cc3c(cc2Cl)OC(F)(F)O3)cn1 [CM4620, reference compound], which “protection in murine models of chemically induced AP” value (chemically induced AP) is on record?
A: protective

Q: What about the “cell viability / cytotoxicity at 50 μM, 72 h” value (HEK cells [2]) of the same molecule?
A: cytotoxic

Q: And the “reversal of cytotoxicity by uridine” value (HEK cells [2])?
A: not reverted by uridine

Q: What does the source list for Cc1c(-c2ccc(-c3ccccc3F)cc2)nc2ccc(F)cc2c1C(=O)O [brequinar]?
A: cell viability / cytotoxicity at 50 μM, 72 h (HEK cells [3]): cytotoxic; reversal of cytotoxicity by uridine (HEK cells [3]): reverted by uridine addition

Q: With COC(=O)c1cc(-n2cc(-c3ccc(-c4cc(OC)ccc4OC)cc3)nn2)ccn1 [Compound 21, Methyl 4-(4-(2′,5′-Dimethoxy-[1,1′-biphenyl]-4-yl)-1H-1,2,3-triazol-1-yl)picolinate] as the molecule, how does the inhibition at 10 µM (SOCE [1]; HEK293, HEK cells, 10 μM) read?
A: > 70%

Q: For C/C(O)=C(\C#N)C(=O)Nc1ccc(C(F)(F)F)cc1 [teriflunomide], which IC50 (SOCE [4]) is on record?
A: 4.3 ± 1 µM

Q: With COc1cccc(-c2ccc(-n3cc(-c4cccc(C(=O)O)c4)nn3)cc2)c1 [Compound 31, 3-(1-(3′-Methoxy-[1,1′-biphenyl]-4-yl)-1H-1,2,3-triazol-4-yl)benzoic Acid] as the molecule, how does the “AUC, peak amplitude, and slope” value (SOCE [1]; HEK cells) read?
A: induced a drop in the three parameters

Q: For COc1ccc(OC)c(-c2ccc(-c3cn(-c4ccncc4)nn3)cc2)c1 [Compound 19, 4-(4-(2′,5′-Dimethoxy-[1,1′-biphenyl]-4-yl)-1H-1,2,3-triazol-1-yl)pyridine], which “effect on SOCE, in words” value (SOCE [1]; HEK cells) is on record?
A: not able to reliably inhibit SOCE

Q: For O=C(O)c1cccc(-c2cn(-c3ccc(-c4ccc5c(c4)OCCO5)cc3)nn2)c1 [Compound 38, 3-(1-(4-(2,3-Dihydrobenzo[b][1,4]dioxin-6-yl)phenyl)-1H-1,2,3-triazol-4-yl)benzoic Acid], which “AUC, peak amplitude, and slope” value (SOCE [1]; HEK cells) is on record?
A: induced a drop in the three parameters

Q: For COc1ccc(OC)c(-c2ccc(-n3cc(-c4ccnc(C(=O)O)c4)nn3)cc2)c1 [Compound 13, 4-(1-(2′,5′-Dimethoxy-[1,1′-biphenyl]-4-yl)-1H-1,2,3-triazol-4-yl)picolinic Acid], which inhibition at 10 µM (SOCE [1]; HEK293, HEK cells, 10 μM) is on record?
A: > 70%

Q: Which “protection in murine models of chemically induced AP” value (chemically induced AP) does the source give for O=C(Nc1ccn(Cc2ccc(O)cc2C(F)(F)F)n1)c1c(F)cccc1F [GSK-7975A] here?
A: protective

Q: For COc1cccc(-c2ccc(-c3cn(-c4cccc(C(=O)O)c4)nn3)cc2)c1OC [Compound 50, 3-(4-(2′,3′-Dimethoxy-[1,1′-biphenyl]-4-yl)-1H-1,2,3-triazol-1-yl)benzoic Acid], which “AUC, peak amplitude, and slope” value (SOCE [1]; HEK cells) is on record?
A: induced a drop in the three parameters

Q: What does the source list for COc1ccc(OC)c(-c2ccc(NC(=O)c3ccncc3F)cc2)c1 [Synta66, reference compound]?
A: AUC and peak amplitude of the Ca2+-rise vs control (SOCE [1]; HEK cells, 10 μM): significantly reduced AUC and peak amplitude; slope of the Ca2+-rise vs control (SOCE [1]; HEK cells, 10 μM): significant effect on the slope; inhibition at 10 µM (SOCE [1]; HEK293, HEK cells, 10 μM): 90.8 ± 1.7%; inhibition at 3 µM (SOCE [1]; [5]): 90.8 ± 1.7%; IC50 (ICRAC): 1.4 to 3 µM; cell viability / cytotoxicity at 50 μM, 72 h (HEK cells [2]): significant cytotoxicity

Q: For COc1ccc(OC)c(-c2ccc(-n3cc(-c4ccccn4)nn3)cc2)c1 [Compound 12, 2-(1-(2′,5′-Dimethoxy-[1,1′-biphenyl]-4-yl)-1H-1,2,3-triazol-4-yl)pyridine], which inhibition at 10 µM (SOCE [1]; HEK293, HEK cells, 10 μM) is on record?
A: 0%

Q: And the inhibition at 3 µM (SOCE [1]; [5])?
A: 0%

Q: Which “AUC, peak amplitude, and slope” value (SOCE [1]; HEK cells) does the source give for COc1ccc(F)c(-c2ccc(-n3cc(-c4cccc(C(=O)O)c4)nn3)cc2)c1 [Compound 40, 3-(1-(2′-Fluoro-5′-methoxy-[1,1′-biphenyl]-4-yl)-1H-1,2,3-triazol-4-yl)benzoic Acid] here?
A: induced a drop in the three parameters

Q: For COc1cc(OC)cc(-c2ccc(-n3cc(-c4cccc(C(=O)O)c4)nn3)cc2)c1 [Compound 36, 3-(1-(3′,5′-Dimethoxy-[1,1′-biphenyl]-4-yl)-1H-1,2,3-triazol-4-yl)benzoic Acid], which “AUC, peak amplitude, and slope” value (SOCE [1]; HEK cells) is on record?
A: induced a drop in the three parameters

Q: Which “AUC, peak amplitude, and slope” value (SOCE [1]; HEK cells) does the source give for O=C(O)c1cccc(-c2cn(-c3ccc(-c4cccc5c4OCCO5)cc3)nn2)c1 [Compound 35, 3-(1-(4-(2,3-Dihydrobenzo[b][1,4]dioxin-5-yl)phenyl)-1H-1,2,3-triazol-4-yl)benzoic Acid] here?
A: induced a drop in the three parameters
